Data on 56 molecules can be found in ChEMBL document CHEMBL1153790, “Scoring function for DNA-drug docking of anticancer and antiparasitic compounds based on spectral moments of 2D lattice graphs for molecular dynamics trajectories” (2009).

This assay is described as follows: Antiproliferative activity against mouse EAC cells assessed as ratio of ID50 of compound to ID50 of 8-methoxypsoralen. The assay is classed as functional, Ehrlich.
`Cc1cc2occ(C)c2c2oc(=O)ccc12`: the Ratio is recorded as 5.3.
With `COC(=O)c1cc2ccc3occc3c2oc1=O` the figure was 0.2.
With `O=c1ccc2ccc3occc3c2o1` [ANGELICIN] the figure was 0.55; with `Cc1cc(=O)oc2c1ccc1occ(C)c12`, 5.75.
With `Cc1cc2c(o1)c(C)cc1c(CO)cc(=O)[nH]c12` the figure was 0.66; with `Cc1oc2c(C)cc3c(C)cc(=O)[nH]c3c2c1C`, 9.25.
With `CCOCCNC(=O)c1cc2ccc3occc3c2oc1=O`, the Ratio was less than 0.01.
As for `Cc1c(C)c2ccc3occc3c2oc1=O`, the Ratio is recorded as 0.35.
Then `Cc1oc2nc3oc(=O)ccc3c(C)c2c1C`, with 0.25; and `COc1c2ccoc2cc2oc(=O)ccc12` [BERGAPTEN], with 0.66; and `Cc1coc2nc3oc(=O)ccc3c(C)c12`, with 0.97.
With `Cc1oc2nc3oc(=O)ccc3cc2c1C` the figure was 0.18; with `COc1c2occc2cc2ccc(=O)oc12` [METHOXSALEN], 1; with `O=C(NCCO)c1cc2ccc3occc3c2oc1=O`, less than 0.01.
Take `Cc1cc2c(ccc3ccc(=O)oc32)o1`: the Ratio was 0.8.
Consider `Cc1cc(=O)oc2c1c(C)cc1occ(C)c12`, for which the Ratio worked out at 5.78.
Then `Cc1coc2cc3oc(=O)cc(CO)c3cc12`, with 2.32; and `CCOC(=O)c1cc2ccc3occc3c2oc1=O`, with 0.4.
With `COc1c2oc(=O)c(C)cc2cc2c(C)coc12` the figure was 0.89.
Then `Cc1oc2ccc3c(C)cc(=O)[nH]c3c2c1C`, with 2.59.
In the case of `Cc1cc(=O)oc2nc3occc3cc12`, the Ratio amounted to 0.14.
As for `Cc1coc2nc3oc(=O)ccc3cc12`, the Ratio is listed as 0.13.
With `Cc1cc2c(o1)c(C)cc1c(CO)cc(=O)n(C)c12` the figure was 5.6; with `CN1CCN(C(=O)c2cc3ccc4occc4c3oc2=O)CC1`, less than 0.01; with `Cc1c(C)c2cc3c(C)coc3cc2oc1=O`, 0.34.
With `COCc1cc(=O)n(C)c2c1cc(C)c1oc(C)cc12`, the Ratio came out at 2.09.
With `Cc1cc2cc3c(C)coc3cc2oc1=O` the figure was 1.01; with `O=C(O)c1cc2ccc3occc3c2oc1=O`, 0.07.
Then `Cc1cc(=O)[nH]c2c1cc(C)c1occ(C)c12`, with 4.62; and `Cc1oc2ccc3ccc(=O)oc3c2c1C`, with 1.47.
Then `Cc1oc2cc3oc(=O)ccc3cc2c1C`, with 1.26.
On to `Cc1cc(=O)[nH]c2c1cc(C)c1oc(CO)c(C)c12`, for which the Ratio worked out at 1.07.
Consider `COCc1c(C)oc2ccc3c(C)cc(=O)oc3c12`, for which the Ratio was 0.6.
Then `NC(=O)c1cc2ccc3occc3c2oc1=O`, with 0.05.
With `Cc1coc2ccc3ccc(=O)oc3c12` the figure was 0.81; with `O=C(c1ccccc1)c1cc2ccc3occc3c2oc1=O`, less than 0.01.
Then `Cc1oc2nc3oc(=O)c(C)c(C)c3cc2c1C`, with 1.83; and `CN(C)CCNC(=O)c1cc2ccc3occc3c2oc1=O`, with less than 0.01; and `Cc1cc(=O)oc2c1ccc1occc12`, with 0.55.
For the molecule `Cc1c(C)c2cc3c(C)coc3nc2oc1=O`, the Ratio is recorded as 0.67.
Then `CC(=O)c1cc2ccc3occc3c2oc1=O`, with less than 0.01.
Then `O=C(c1cc2ccc3occc3c2oc1=O)N(CCO)CCO`, with less than 0.01.
Regarding `Cc1cc2cc3c(C)coc3c(C)c2oc1=O`, the Ratio came out at 1.34.
As to `O=C(c1cc2ccc3occc3c2oc1=O)N1CCOCC1`, the Ratio is 0.06.
Then `Cc1oc2cc3oc(=O)c(C)cc3cc2c1C`, with 1.79; and `Cc1cc2c(o1)c(C)cc1c(C)cc(=O)[nH]c12`, with 1.36; and `O=c1ccc2cc3ccoc3cc2o1` [PSORALEN], with 1.52.
With `Cc1cc2ccc3occc3c2oc1=O`, the Ratio is 0.2.
With `CCN(CC)C(=O)c1cc2ccc3occc3c2oc1=O` the figure was less than 0.01; with `Cc1coc2nc3oc(=O)cc(C)c3cc12`, 0.68; with `Cc1oc2nc3oc(=O)cc(C)c3cc2c1C`, 3.66.
With `Cc1cc2c(ccc3c(C)cc(=O)oc32)o1` the figure was 1.27.
Consider `Cc1cc(=O)[nH]c2c1ccc1occ(C)c12`, for which the Ratio worked out at 0.48.
Then `Cc1cc2cc3c(C)cc(=O)oc3c(C)c2o1` [TRIOXSALEN], with 27.6; and `CN(C)C(=O)c1cc2ccc3occc3c2oc1=O`, with 0.07; and `Cc1c(C)c2ccc3occ(C)c3c2oc1=O`, with 0.03.
